Laboratory results from patent US20240124434A1, “ATF6 INHIBITORS AND USES THEREOF” (Altos Labs, Inc., priority 2018, published 2024).
In brackets after ≈: the same amount, converted by molar mass. Read-outs that look alike come from different tables or passages of the source.

Tests used:
[1] = In vitro microsomal stability, rat liver microsomes; type: in vitro ADME; settings: for half-life at […], 1 µM / half-life at 1 μM: rat, read-out: T1/2 @ rLM; for Rem. @ rLM (%): remaining fraction after 30 min, 1 μM compound, 0.5 mg/mL rat liver microsomes, 1 mM NADPH
In short: (§1)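 1 μM compound was incubated at 37 °C with 0.5 mg/mL human, mouse or rat liver microsomes and 1 mM NADPH in 100 mM phosphate buffer pH 7.4. Reactions were stopped at 0, 5, 15 and 30 min with cold acetonitrile containing propranolol internal standard.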

[2] = In vitro microsomal stability, human liver microsomes; type: in vitro ADME; settings: for Rem. @ hLM (%): remaining fraction after 30 min, 1 μM compound, 0.5 mg/mL human liver microsomes, 1 mM NADPH
In short: as §1

[3] = In vitro microsomal stability, mouse liver microsomes; type: in vitro ADME; settings: for half-life at […], 1 µM / half-life at 1 μM: mouse, read-out: T1/2 @ mLM; for Rem. @ mLM (%): remaining fraction after 30 min, 1 μM compound, 0.5 mg/mL mouse liver microsomes, 1 mM NADPH
In short: as §1

ATF6 = test: ERSE ATF6-luciferase reporter assay (thapsigargin-induced ER stress); type: cell-based, human; settings: for inhibition at 1 µM: 8 hr
CYP2D6 = CYP2D6 (Homo sapiens (Human), UniProt P10635); test: CYP inhibition in human liver microsomes
Method: (§2) CYP inhibition by test compounds in human liver microsomes (HLM) for seven major CYP450 isoforms CYP1A2, CYP2C9, CYP2D6, CYP2B6, CYP2C8, CYP2C19 and CYP3A4 were assessed. […] 50 μM phenacetin, 2 μM midazolam, 5 μM diclofenac, 50 μM mephenytoin, 80 μM bupropion, and 5 μM dextromethorphan were used as probe substrates of CYP1A2, CYP3A4, CYP2C9, CYP2C19, CYP2B6, and CYP2D6, respectively. The incubation times were 20 min for […], CYP2D6, CYP2C9, CYP2B6, and CYP2C8; 40 min for CYP2C19; and 10 min for CYP 3A4. Following incubations, the reactions were terminated with acetonitrile containing internal standard. The samples were centrifuged and the supernatants were analyzed for the formation of metabolites (1-hydroxymidazolam (CYP3A4), 4-hydroxydiclofenac (CYP2C9), 4-hydroxymephenytoin (CYP2C19) and dextrorphan (CYP2D6), hydroxybupropion (CYP2B6), acetaminophen (CYP1A2), desethylamodiaquine (CYP2C8)) by LC/MS/MS.

CYP2C19 = CYP2C19 (Homo sapiens (Human), UniProt P33261); test: CYP inhibition in human liver microsomes
Method: as §2

CYP2B6 = CYP2B6 (Homo sapiens (Human), UniProt P20813); test: CYP inhibition in human liver microsomes
Method: as §2

CYP2C8 = CYP2C8 (Homo sapiens (Human), UniProt P10632); test: CYP inhibition in human liver microsomes; settings: read-out: CYP-2C8, metabolite desethylamodiaquine
Method: as §2

CYP3A4 = CYP3A4 (Homo sapiens (Human), UniProt P08684); test: CYP inhibition in human liver microsomes
Method: as §2

CYP2C9 = CYP2C9 (Homo sapiens (Human), UniProt P11712); test: CYP inhibition in human liver microsomes
Method: as §2

CYP1A2 = CYP1A2 (Homo sapiens (Human), UniProt P05177); test: CYP inhibition in human liver microsomes
Method: as §2

in vivo = settings: Balb/c, mouse, po, 10 mg/kg
Method: (§3) Tested compounds were formulated at 1 mg/mL as a dosing solution for oral administration in vehicle A: 10% dimethylacetamide (DMAC), 20% propylene glycol, and 40% PEG-400 or vehicle B: 10% Kolliphor® EL and 10% ethanol (EtOH).
(§4) Animals were acclimated for a minimum period of 4 days upon arrival at the testing facility.
(§5) At the day of study, mice were weighed, identified by marking the tail with numbers using a non-toxic permanent marker, and designated into ten experimental groups (n=3 per group).
(§6) Non-dosed mice were used to collect samples of zero time points. […] Blood samples were centrifuged immediately at 9,000 g at 4° C. for 5 minutes and then plasmas were separated. Plasma samples were placed into individually labeled cryovials and stored in a −80° C. freezer until LC/MS/MS bioanalysis.
(§7) The bioanalysis of plasma samples was conducted with a QTRAP 4500 triple quadrupole mass spectrometer (Applied Biosystems SCIEX) in the positive ion mode and interfaced with an Ekspert Ultra LC100 UPLC System (Eksigent). Calibration standards (0.01 to 10 μM) and QCs (0.02, 0.2 and 2.0 μM) were prepared from naïve mouse plasma in parallel with mouse plasma study samples (60 μL) by precipitation with three volumes of ice cold internal standard solution (acetonitrile containing 20 μM of theophylline). The precipitated samples were centrifuged at 6,100 g for 30 min. Following centrifugation, an aliquot of each supernatant was transferred to an autosampler plate and diluted with two volumes of aqueous mobile phase (0.1% formic acid in water). Samples were injected onto a reverse phase analytical column (YMC Triart C18; 2.0×50 mm; 1.9 μm; YMC CO) and eluted with a gradient of 0.1% formic acid in Acetonitrile. Assayed test compound and internal standards were monitored by a multiple reaction monitoring (MRM) experiment using an Analyst software (v1.6.2, Applied Biosystems SCIEX). Quantitation was conducted using a MultiQuant software (v2.1, Applied Biosystems SCIEX) and the resulting calibration curve was fitted with a linear regression and 1/x weighting. The lower limits of quantitation were 1<LLQ <5 ng/mL.

[4] = mouse, in vivo, po, 10 mg/kg; for AUCExtr [%] / F [%] / Vz: Balb/c
Method: as §3, §4, §5, §6, §7

[5] = Kinetic solubility (nephelometry); type: physicochemical; settings: aqueous buffer, kinetic from dmso stock; PBS pH 7.4, 1% DMSO, 1 hour at 37° C., light scattering at 625 nm
Method: Concentration (μM) was then calculated by segmental regression. Amiodarone (#A8423 Aldrich) was used as positive control.

[6] = pH 7.4, intrinsic clearance, rat liver microsomes, read-out: Clint @ rLM
[7] = human, human liver microsomes, pH 7.4, read-out: T1/2 @ hLM
[8] = pH 7.4, intrinsic clearance, human liver microsomes, read-out: Clint @ hLM
[9] = pH 7.4, intrinsic clearance, mouse liver microsomes, read-out: Clint @ mLM
[10] = read-out: CYP-2D6, human liver microsomes, probe substrate dextromethorphan
[11] = read-out: CYP-2C19, human liver microsomes, probe substrate mephenytoin
[12] = read-out: CYP-2B6, human liver microsomes, probe substrate bupropion
[13] = read-out: CYP-3A4, human liver microsomes, probe substrate midazolam
[14] = read-out: CYP-2C9, human liver microsomes, probe substrate diclofenac
[15] = Homo sapiens, U2OS, 8 h, read-out: Inh. ATF6-Luc @ 1 μM [%], 1 μM test compound, thapsigargin-induced ER stress, U2-OS ATF6 luc reporter cells
[16] = Homo sapiens, U2OS, read-out: IC50 ATF6-Luc reporter [μM], dose-response 30 μM to 1 nM, thapsigargin-induced ER stress, U2-OS ATF6 luc reporter cells

CYP3A4, sequence (P08684 whole entry): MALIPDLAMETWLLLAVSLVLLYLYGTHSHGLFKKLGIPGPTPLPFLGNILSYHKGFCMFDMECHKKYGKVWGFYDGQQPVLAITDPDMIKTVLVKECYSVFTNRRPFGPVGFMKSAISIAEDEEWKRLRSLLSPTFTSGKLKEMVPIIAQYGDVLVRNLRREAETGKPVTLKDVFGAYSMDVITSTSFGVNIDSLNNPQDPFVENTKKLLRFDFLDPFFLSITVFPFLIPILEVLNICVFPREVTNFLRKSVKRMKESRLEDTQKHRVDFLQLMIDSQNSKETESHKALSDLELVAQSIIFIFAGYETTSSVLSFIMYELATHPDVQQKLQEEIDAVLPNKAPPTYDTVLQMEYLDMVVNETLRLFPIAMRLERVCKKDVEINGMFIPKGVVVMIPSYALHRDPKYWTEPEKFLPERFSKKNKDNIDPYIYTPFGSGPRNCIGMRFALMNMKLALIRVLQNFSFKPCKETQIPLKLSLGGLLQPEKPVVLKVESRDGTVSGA
CYP2D6, sequence (P10635 whole entry, canonical isoform): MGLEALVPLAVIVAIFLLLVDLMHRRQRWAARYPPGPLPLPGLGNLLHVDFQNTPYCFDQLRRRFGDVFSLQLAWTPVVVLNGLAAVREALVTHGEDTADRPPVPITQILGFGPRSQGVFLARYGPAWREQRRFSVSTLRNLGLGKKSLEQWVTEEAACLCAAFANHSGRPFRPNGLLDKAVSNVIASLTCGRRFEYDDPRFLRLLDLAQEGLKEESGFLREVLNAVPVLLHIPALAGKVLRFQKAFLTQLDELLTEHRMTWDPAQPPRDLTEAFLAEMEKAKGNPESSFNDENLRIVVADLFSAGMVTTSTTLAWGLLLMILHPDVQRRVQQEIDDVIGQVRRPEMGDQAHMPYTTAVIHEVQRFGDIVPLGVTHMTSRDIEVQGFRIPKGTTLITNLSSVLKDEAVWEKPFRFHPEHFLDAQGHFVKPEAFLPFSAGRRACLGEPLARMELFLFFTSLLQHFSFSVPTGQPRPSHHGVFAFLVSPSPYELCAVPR
CYP2C19, sequence (P33261 whole entry): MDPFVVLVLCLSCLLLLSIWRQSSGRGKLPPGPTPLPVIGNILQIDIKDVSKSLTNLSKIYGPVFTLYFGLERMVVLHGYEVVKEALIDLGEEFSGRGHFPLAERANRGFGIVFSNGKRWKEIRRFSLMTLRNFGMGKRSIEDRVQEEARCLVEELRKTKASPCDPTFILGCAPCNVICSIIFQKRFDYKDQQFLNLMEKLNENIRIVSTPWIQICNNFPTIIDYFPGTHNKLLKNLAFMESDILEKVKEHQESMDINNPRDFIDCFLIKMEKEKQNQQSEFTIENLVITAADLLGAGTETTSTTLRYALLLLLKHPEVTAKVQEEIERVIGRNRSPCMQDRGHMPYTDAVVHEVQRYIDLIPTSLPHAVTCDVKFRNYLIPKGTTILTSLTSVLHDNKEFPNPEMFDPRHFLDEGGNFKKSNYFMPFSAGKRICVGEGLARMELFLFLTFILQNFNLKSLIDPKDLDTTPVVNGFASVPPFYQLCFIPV
CYP2C9, sequence (P11712 whole entry): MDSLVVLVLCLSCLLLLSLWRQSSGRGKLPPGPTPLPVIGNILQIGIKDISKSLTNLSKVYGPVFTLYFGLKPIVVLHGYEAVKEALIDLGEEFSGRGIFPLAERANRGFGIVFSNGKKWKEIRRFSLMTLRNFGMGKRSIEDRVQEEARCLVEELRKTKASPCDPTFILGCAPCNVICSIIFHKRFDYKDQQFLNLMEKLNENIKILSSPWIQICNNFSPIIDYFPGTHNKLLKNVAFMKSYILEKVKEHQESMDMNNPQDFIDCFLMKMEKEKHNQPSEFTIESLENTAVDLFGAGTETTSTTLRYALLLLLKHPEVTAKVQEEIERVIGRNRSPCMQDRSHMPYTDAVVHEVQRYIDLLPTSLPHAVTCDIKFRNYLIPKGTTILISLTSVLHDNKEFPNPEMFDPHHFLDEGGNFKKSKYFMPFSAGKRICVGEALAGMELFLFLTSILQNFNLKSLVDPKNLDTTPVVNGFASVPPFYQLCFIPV
CYP2B6, sequence (P20813 whole entry): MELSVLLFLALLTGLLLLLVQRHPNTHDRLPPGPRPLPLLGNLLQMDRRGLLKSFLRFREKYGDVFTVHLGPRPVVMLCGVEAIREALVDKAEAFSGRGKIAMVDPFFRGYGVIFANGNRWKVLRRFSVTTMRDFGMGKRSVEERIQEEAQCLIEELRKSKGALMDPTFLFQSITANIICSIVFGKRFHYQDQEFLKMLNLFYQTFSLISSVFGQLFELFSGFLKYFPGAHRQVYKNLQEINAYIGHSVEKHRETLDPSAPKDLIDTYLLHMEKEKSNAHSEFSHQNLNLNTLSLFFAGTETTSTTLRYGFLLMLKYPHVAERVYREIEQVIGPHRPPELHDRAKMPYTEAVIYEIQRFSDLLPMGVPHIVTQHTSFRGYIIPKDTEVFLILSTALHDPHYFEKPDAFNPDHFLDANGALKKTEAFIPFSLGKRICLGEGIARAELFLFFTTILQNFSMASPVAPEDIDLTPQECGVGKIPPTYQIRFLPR
CYP2C8, sequence (P10632 whole entry): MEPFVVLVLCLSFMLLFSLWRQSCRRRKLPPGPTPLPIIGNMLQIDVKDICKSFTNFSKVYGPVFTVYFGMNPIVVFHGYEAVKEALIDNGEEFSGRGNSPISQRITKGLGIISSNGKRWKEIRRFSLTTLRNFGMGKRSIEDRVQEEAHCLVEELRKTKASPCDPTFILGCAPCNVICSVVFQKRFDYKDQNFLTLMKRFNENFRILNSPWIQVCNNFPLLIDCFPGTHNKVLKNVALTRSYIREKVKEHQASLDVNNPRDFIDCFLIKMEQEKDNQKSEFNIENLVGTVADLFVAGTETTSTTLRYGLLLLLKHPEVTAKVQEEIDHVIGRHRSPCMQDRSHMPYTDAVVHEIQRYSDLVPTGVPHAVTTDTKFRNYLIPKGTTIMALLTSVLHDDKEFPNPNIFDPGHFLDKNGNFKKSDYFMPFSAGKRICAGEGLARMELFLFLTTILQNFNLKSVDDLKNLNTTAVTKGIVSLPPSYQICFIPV
CYP1A2, sequence (P05177 whole entry): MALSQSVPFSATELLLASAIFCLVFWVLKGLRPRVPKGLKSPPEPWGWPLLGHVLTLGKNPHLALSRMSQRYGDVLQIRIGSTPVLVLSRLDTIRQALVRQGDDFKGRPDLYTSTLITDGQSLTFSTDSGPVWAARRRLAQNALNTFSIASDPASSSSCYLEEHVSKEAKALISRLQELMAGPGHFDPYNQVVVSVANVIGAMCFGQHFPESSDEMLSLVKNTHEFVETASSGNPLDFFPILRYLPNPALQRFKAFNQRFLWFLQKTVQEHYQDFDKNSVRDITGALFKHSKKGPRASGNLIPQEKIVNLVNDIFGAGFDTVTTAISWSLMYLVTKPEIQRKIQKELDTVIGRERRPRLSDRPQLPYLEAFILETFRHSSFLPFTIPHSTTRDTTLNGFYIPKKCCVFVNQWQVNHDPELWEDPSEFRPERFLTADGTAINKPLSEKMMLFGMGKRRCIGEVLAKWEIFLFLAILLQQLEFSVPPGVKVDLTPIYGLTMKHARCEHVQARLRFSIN

Row | Structure (SMILES) | microsomal CLint at […], 1 µM [1, 6] [µL/min/mg] | Rem. @ rLM (%) [1] [%] | half-life at […], 1 µM [2, 7] [h] | microsomal CLint at […], 1 µM [2, 8] [µL/min/mg] | Rem. @ hLM (%) [2] [%] | microsomal CLint at […], 1 µM [3, 9] [µL/min/mg] | Rem. @ mLM (%) [3] [%] | IC50 (CYP2D6; [10]) [µM] | IC50 (CYP2C19; [11]) [µM] | IC50 (CYP2B6; [12]) [µM] | IC50 (CYP2C8) [µM] | IC50 (CYP3A4; [13]) [µM] | IC50 (CYP2C9; [14]) [µM] | AUC(0-inf) (in vivo) [ng·h/mL] | AUC(0-t) (in vivo) [ng·h/mL] | Cmax (in vivo) [ng/mL] | Tmax (in vivo) [h] | half-life (in vivo) [h] | AUCExtr [%] [4] [%] | F [%] [4] [%] | other results
1 | CC(c1ccc(C(F)(F)F)cc1C(F)(F)F)n1cc(NC(=O)c2cnc(-c3ccccn3)s2)cn1 (centres unmarked) [Compound 78, N-(1-(1-(2,4-bis(trifluoromethyl)phenyl)ethyl)-1H-pyrazol-4-yl)-2-(pyridin-2-yl)thiazole-5-carboxamide] | 22.3 | 71.6 | 1.59 | 14.5 | 80.4 | 17.6 | 76.8 | 2.78 | 5.27 | 4.97 | 1.8 | > 50 | 5.48 |  |  |  |  |  |  |  | half-life at […], 1 µM ([1]; rat liver microsomes, pH 7.4): 1.04 h; half-life at […], 1 µM ([3]; mouse liver microsomes, pH 7.4): 1.31 h; IC50 (ATF6; Homo sapiens, U2OS, dose-response 30 μM to 1 nM, thapsigargin-induced ER stress, U2-OS ATF6 luc reporter cells, read-out: IC50 ATF6-Luc reporter): 1 to 10 µM; inhibition at 1 µM (ATF6; Homo sapiens, U2OS, 1 μM test compound, thapsigargin-induced ER stress, U2-OS ATF6 luc reporter cells, read-out: Inh. ATF6-Luc @ 1 μM [%]): < 25%; IC50 (CYP1A2; read-out: CYP-1A2, human liver microsomes, probe substrate phenacetin): 22.4 µM
2 | O=C(Nc1cnn(Cc2ccc(C(F)(F)F)cc2C(F)(F)F)c1)c1cc(-c2cnccn2)on1 [Compound 114, N-(1-(2,4-bis(trifluoromethyl)benzyl)-1H-pyrazol-4-yl)-5-(pyrazin-2-yl)isoxazole-3-carboxamide] | 25 | 69.7 | 3.55 | 6.5 | 90.4 | 8.4 | 86.8 | > 50 | > 50 | > 50 | > 50 | > 50 | > 50 | 11900 | 10300 | 899 | 0.5 | 8.66 | 14 | 43.3 | half-life at […], 1 µM ([1]; rat liver microsomes, pH 7.4): 0.923 h; Vz [4]: 10.5 L/kg; Last time point for AUClast [4]: 24 h; half-life at […], 1 µM ([3]; mouse liver microsomes, pH 7.4): 2.75 h; inhibition at 1 µM (ATF6; [15]): > 50%; IC50 (ATF6; [16]): < 1 µM; solubility kinetic at 1 h [5]: 1.17 µM (≈ 0.564 µg/mL)
3 | CC(c1ccc(C(F)(F)F)cc1C(F)(F)F)n1cc(NC(=O)c2cc(-c3ccco3)on2)cn1 (single isomer, unassigned) [“Enantiomer A” of Example S6, N-(1-(1-(2,4-bis(trifluoromethyl)phenyl)ethyl)-1H-pyrazol-4-yl)-5-(furan-2-yl)isoxazole-3-carboxamide] |  | 1.4 |  |  | 41.8 |  | 3.05 |  |  |  |  |  |  | 626 | 615 | 579 | 0.5 | 1.6 | 1.73 | 9.6 | microsomal CLint at 1 μM [1, 6]: 283 µL/min/mg; half-life at 1 μM ([1]; rat liver microsomes, pH 7.4): 0.0815 h; half-life at 1 μM [2, 7]: 0.4 h; microsomal CLint at 1 μM [2, 8]: 57.8 µL/min/mg; Last time point for AUClast [4]: 8 h; half-life at 1 μM ([3]; mouse liver microsomes, pH 7.4): 0.0995 h; microsomal CLint at 1 μM [3, 9]: 232 µL/min/mg; IC50 (ATF6): < 1 µM; Inh. ATF6-Luc @ 1 μM [%] (ATF6; 8 h, 1 µM): +++ (+++ refers to >50% inhibition at 1 μM test compound); solubility kinetic at 1 h [5]: 27 µM (≈ 13.1 µg/mL); IC50 (CYP2D6): 23.7 µM; IC50 (CYP2C19): 3.54 µM; IC50 (CYP2B6): 4.18 µM; IC50 (CYP3A4): > 50 µM; IC50 (CYP2C9): 7.88 µM; IC50 (CYP1A2): 15.3 µM
4 | C[C@H](c1ccc(C(F)(F)F)cc1C(F)(F)F)n1cc(NC(=O)c2nnc(-c3ccccn3)s2)cn1 [Compound 123, (R)—N-(1-(1-(2,4-bis(trifluoromethyl)phenyl)ethyl)-1H-pyrazol-4-yl)-5-(pyridin-2-yl)-1,3,4-thiadiazole-2-carboxamide] | 10.7 | 81.5 | 7.67 | 3 | 95.5 | 7.2 | 89.7 | > 50 | > 50 | 42.9 | 33.3 | > 50 | 31.9 | 62200 | 38800 | 4560 | 1 | 19.1 | 37.7 | 64.1 | half-life at […], 1 µM ([1]; rat liver microsomes, pH 7.4): 2.17 h; Vz [4]: 4.43 L/kg; Last time point for AUClast [4]: 24 h; half-life at […], 1 µM ([3]; mouse liver microsomes, pH 7.4): 3.22 h; inhibition at 1 µM (ATF6; [15]): > 50%; IC50 (ATF6; [16]): < 1 µM; solubility kinetic at 1 h [5]: 1.17 µM (≈ 0.6 µg/mL)
5 | O=C(Nc1cnn(Cc2ccc(C(F)(F)F)cc2C(F)(F)F)c1)c1cc(-c2ccccn2)on1 [Compound 11, N-(1-(2,4-bis(trifluoromethyl)benzyl)-1H-pyrazol-4-yl)-5-(pyridin-2-yl)isoxazole-3-carboxamide] | 44 | 44.8 | 1.12 | 21 | 73.5 | 55 | 40.8 | > 50 | 9.85 | 16.9 | 1.09 | > 50 | 7.77 | 10300 | 9780 | 2270 | 0.25 | 6.24 | 5.07 | 48.6 | half-life at 1 μM ([1]; rat liver microsomes, pH 7.4): 0.522 h; Vz [4]: 8.74 L/kg; Last time point for AUClast [4]: 24 h; half-life at 1 μM ([3]; mouse liver microsomes, pH 7.4): 0.422 h; inhibition at 1 µM (ATF6; [15]): > 50%; IC50 (ATF6; [16]): < 1 µM; solubility kinetic at 1 h [5]: 9.41 µM (≈ 4.53 µg/mL)
